Here are results for 23 molecules from PMC9884089 (Journal of Medicinal Chemistry, 2023).

One data set has as its target T1, PARP2 (Homo sapiens, UniProt Q9UGN5).
T1 construct: made in house
The data set is described as follows: biochemical. The format is biochemical.

For a further data set, the target named is T2, TNKS2 (Homo sapiens, UniProt Q9H2K2).
T2 sequence (Q9H2K2 1-1166): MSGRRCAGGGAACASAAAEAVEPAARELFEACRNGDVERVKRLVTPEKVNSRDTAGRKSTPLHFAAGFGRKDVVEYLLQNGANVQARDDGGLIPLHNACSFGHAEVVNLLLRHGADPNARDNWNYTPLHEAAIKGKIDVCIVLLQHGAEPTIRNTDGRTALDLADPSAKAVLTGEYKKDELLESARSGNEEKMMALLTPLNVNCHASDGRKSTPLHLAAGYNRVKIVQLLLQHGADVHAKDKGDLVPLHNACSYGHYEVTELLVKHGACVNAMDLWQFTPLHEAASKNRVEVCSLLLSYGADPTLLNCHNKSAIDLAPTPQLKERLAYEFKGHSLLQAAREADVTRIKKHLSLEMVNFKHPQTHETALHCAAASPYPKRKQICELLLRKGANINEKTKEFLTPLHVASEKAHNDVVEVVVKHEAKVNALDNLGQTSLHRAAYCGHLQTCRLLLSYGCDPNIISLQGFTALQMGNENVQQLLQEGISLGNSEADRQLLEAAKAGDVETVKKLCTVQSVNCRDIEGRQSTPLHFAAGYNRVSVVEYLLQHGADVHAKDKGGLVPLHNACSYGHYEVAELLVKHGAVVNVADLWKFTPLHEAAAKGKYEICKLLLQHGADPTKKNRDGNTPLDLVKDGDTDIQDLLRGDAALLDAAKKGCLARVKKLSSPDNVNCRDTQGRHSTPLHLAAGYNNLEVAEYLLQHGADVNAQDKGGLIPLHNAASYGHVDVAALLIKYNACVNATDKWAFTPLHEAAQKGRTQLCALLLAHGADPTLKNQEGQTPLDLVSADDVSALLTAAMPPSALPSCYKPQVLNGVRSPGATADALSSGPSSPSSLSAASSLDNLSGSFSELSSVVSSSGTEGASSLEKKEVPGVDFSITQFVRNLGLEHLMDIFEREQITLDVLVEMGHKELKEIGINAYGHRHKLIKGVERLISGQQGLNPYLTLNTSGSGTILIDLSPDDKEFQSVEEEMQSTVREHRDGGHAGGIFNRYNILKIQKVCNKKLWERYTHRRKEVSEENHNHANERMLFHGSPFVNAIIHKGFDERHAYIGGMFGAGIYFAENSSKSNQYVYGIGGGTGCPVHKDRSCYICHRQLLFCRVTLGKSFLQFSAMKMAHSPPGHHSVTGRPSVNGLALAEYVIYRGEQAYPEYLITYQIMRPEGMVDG
Briefly: biochemical. The method, then:
The proteins used in Tables 1–3 were produced as described earlier. Dockerin constructs to allow enhanced activity assays for mono-ARTs (Table 4) were produced in Escherichia coli with an N-terminal maltose binding protein (MBP) and a C-terminal dockerin domain from Hungateiclostridium thermocellum Cel48s as described recently.[47]
Inhibition experiments were performed using a homogenous assay measuring NAD+ consumption.[80]−[82] Reactions were carried out in quadruplicate, and IC50 curves were fitted using sigmoidal dose response curve (four variables) in GraphPad Prism version 8.02. […] Assay conditions for PARP2, TNKS2, PARP10, and PARP15 (Tables 1–3) were recently reported.[44] The conditions for the proximity-enhanced mono-ART assays (Table 4) were also reported recently.[47] PARP6 (400 nM) inhibition was measured using the standard buffer (50 mM sodium phosphate pH 7.0) for the enhanced activity assay using 500 nM NAD^+ and 18 h incubation in r.t..

Data set [1] can be described thus: PAMPA, blood brain barrier (BBB) permeability. The format is in vitro ADME. The conditions noted are these: brain polar lipid, pH 7.4, 5 h. As for the experimental part:
Each “donor solution” was prepared from a solution of the appropriate compound (DMSO, 1 mM) diluted with phosphate buffer (pH 7.4, 0.025 M) up to a final concentration of 500 μM. […] Donor solution (150 μL) was added to each well of the filter plate and to each well of the acceptor plate was added 300 μL of solution (50% DMSO in phosphate buffer). The sandwich plate was assembled and incubated for 5 h at r.t. After the incubation time, the plates were separated, and the samples were taken from both the donor and acceptor wells, and the amount of compound was measured by UV/LC–MS. All compounds were tested in three independent experiments. […] Drug concentration is estimated by using the peak area integration. Membrane retentions (%) were calculated according to the following equation [drawing 2] where r is the ratio between drug concentration in the acceptor and equilibrium concentration and D, A, and Eq represent drug concentration in the donor, acceptor, and equilibrium solution, respectively.

Another data set deals with T3, PARP15 (Homo sapiens, UniProt Q460N3).
T3 construct: made in house
T3 sequence (Q460N3 1-678): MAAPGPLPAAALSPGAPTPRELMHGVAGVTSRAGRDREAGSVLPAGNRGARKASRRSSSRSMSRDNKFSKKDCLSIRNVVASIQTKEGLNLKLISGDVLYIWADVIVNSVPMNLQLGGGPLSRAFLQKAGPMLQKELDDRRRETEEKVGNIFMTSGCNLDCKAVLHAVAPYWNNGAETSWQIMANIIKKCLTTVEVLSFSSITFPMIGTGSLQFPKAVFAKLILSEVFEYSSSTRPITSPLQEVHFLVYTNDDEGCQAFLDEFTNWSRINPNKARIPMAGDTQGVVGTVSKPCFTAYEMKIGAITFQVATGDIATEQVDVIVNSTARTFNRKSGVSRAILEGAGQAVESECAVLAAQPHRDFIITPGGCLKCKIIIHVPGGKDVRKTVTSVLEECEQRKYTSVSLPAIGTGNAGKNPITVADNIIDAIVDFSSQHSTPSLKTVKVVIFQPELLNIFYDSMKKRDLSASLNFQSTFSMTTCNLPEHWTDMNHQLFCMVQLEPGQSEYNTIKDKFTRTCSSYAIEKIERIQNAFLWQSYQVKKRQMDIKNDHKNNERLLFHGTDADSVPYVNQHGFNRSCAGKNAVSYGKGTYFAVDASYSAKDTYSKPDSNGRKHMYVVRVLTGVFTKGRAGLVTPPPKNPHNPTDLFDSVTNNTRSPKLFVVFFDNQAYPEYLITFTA
The data set is described as follows: biochemical. The format is biochemical. The conditions noted are these: standard assay (Tables 1-3); * value limited by the protein concentration used; > less than 50% inhibition, ≫ no inhibition at the concentration; read-out: PARP15 IC50.

[2] abbreviates: > = less than 50% inhibition at highest concentration, ≫ = no inhibition, read-out: PARP2 IC50.
The mark [3] stands for this setting: read-out: TNKS2 IC50, > = less than 50% inhibition at highest concentration.

Like-named read-outs stand apart in the source and are kept apart here.

T1 sequence (Q9UGN5 whole entry): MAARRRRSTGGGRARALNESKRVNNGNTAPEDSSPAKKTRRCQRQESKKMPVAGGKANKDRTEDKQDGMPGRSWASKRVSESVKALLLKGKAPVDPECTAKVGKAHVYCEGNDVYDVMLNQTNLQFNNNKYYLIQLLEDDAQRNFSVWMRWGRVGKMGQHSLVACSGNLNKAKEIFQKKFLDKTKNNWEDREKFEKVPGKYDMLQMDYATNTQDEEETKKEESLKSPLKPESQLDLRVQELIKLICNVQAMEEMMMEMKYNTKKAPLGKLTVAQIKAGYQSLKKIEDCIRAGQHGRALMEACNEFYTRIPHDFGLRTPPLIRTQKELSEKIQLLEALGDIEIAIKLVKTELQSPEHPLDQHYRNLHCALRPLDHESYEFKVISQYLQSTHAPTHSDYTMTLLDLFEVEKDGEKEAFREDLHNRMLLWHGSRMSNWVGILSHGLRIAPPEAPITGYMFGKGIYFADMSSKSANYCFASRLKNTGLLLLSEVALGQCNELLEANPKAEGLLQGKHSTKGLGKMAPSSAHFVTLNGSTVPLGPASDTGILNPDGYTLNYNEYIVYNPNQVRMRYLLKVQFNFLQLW

For the molecule `Oc1cccc2c1sc1nncn12` [Compound 17, [1,2,4]Triazolo[3,4-b][1,3]benzothiazol-8-ol], the figures for the IC50 on PARP2 (setting [2]) and on TNKS2 (setting [3]) were 29 µM and 17 µM, respectively.

`Cc1ccc2c(c1)sc1nnc(SCc3ccc(Cl)cc3)n12` [Compound 23, 3-[(4-Chlorobenzyl)thio]-7-methyl[1,2,4]triazolo[3,4-b][1,3]benzothiazole]: the IC50 on PARP2 (setting [2]) and at TNKS2 (setting [3]) was more than 100 µM in each case.

As for `COc1ccc(OC)c2c1sc1nncn12` [Compound 14, 5,8-Dimethoxy[1,2,4]triazolo[3,4-b][1,3]benzothiazole], the IC50 on PARP2 (setting [2]) stood at 9.2 µM; on TNKS2 (setting [3]) it was 4 µM.

As to `Cc1cccc2c1sc1nncn12` [Compound 4, 8-Methyl[1,2,4]triazolo[3,4-b][1,3]benzothiazole], the IC50 at PARP2 (setting [2]) came to 8.3 µM; at TNKS2 (setting [3]), 3.8 µM.

As for `CSc1nnc2sc3cc(C)ccc3n12` [Compound 22, 7-Methyl-3-(methylthio)[1,2,4]triazolo[3,4-b][1,3]benzothiazole], the IC50 was 12 µM at PARP2 (setting [2]) and more than 100 µM on TNKS2 (setting [3]).

In the case of `CCc1ccc2c(c1)sc1nncn12` [Compound 5, 7-Ethyl[1,2,4]triazolo[3,4-b][1,3]benzothiazole], the IC50 on PARP2 (setting [2]) worked out at 3.9 µM; on TNKS2 (setting [3]), 5.3 µM.

Regarding `O=C(c1cc(Cc2n[nH]c(=O)c3ccccc23)ccc1F)N1CCN(C(=O)C2CC2)CC1` [olaparib, reference compound], the Papp at 5 h, 500 μM in data set [1] came out at 0.016 ×10⁻⁶ cm/s.

Regarding `Cc1ccc2c(c1)sc1nncn12` [Compound 1], the IC50 was found to be 4 µM on PARP2 (setting [2]) and 5.3 µM at TNKS2 (setting [3]).

As to `Cc1ccc(F)c2c1sc1nncn12` [Compound 9, 5-Fluoro-8-methyl[1,2,4]triazolo[3,4-b][1,3]benzothiazole], at TNKS2 (setting [3]), the IC50 is 5.4 µM.

With `COc1ccc2c(c1)sc1nncn12` [Compound 11], the figures for the IC50 at PARP2 (setting [2]) and on TNKS2 (setting [3]) were 8.8 µM and 5.5 µM, respectively.

Turning to `Cc1ccc2c(c1)sc1nnc(/N=C\c3ccc(Cl)cc3)n12` [Compound 24, N-[(1Z)-(4-Chlorophenyl)methylene]-7-methyl[1,2,4]triazolo[3,4-b][1,3]benzothiazol-3-amine], the figures for the IC50 at PARP2 (read-out: PARP2 IC50) and at TNKS2 were 2.9 µM and more than 100 µM, respectively.

Take `COc1cccc2sc3nncn3c12` [Compound 13, 5-Methoxy[1,2,4]triazolo[3,4-b][1,3]benzothiazole]: the 50% inhibitory concentration (IC50) at TNKS2 (setting [3]) was found to be 1 µM.

In the case of `COc1cc(OC)c2sc3nncn3c2c1` [Compound 15, 6,8-Dimethoxy[1,2,4]triazolo[3,4-b][1,3]benzothiazole], the IC50 worked out at 20 µM at PARP2 (setting [2]) and 7.6 µM on TNKS2 (setting [3]).

For `Cc1ccc2c(c1)sc1nnc(O)n12` [Compound 19], the figures for the IC50 on PARP2 (setting [2]), on TNKS2 (setting [3]) and on PARP15 were more than 100 µM, more than 100 µM and more than 10 µM, respectively.

As for `COc1ccc(OC)c2c1sc1nnc(S)n12` [Compound 26, 5,8-Dimethoxy[1,2,4]triazolo[3,4-b][1,3]benzothiazole-3(2H)-thione], the IC50 was 19 µM on PARP2 (setting [2]) and 66 µM on TNKS2 (setting [3]).

Regarding `Clc1ccc2c(c1)sc1nncn12` [Compound 7], the values for the IC50 at PARP2 (setting [2]) and on TNKS2 (setting [3]) were 2.4 µM and 10 µM, respectively.

For `Cc1ccc2sc3nncn3c2c1` [Compound 3, 6-Methyl[1,2,4]triazolo[3,4-b][1,3]benzothiazole], the IC50 was determined as 1.5 µM on PARP2 (setting [2]) and 0.95 µM on TNKS2 (setting [3]). In addition, the “TNKS2 pIC50 ± SEM” value at TNKS2 (n = 3) was found to be 6.02 ± 0.13.

Turning to `COc1cccc2c1sc1nncn12` [Compound 12, 8-Methoxy[1,2,4]triazolo[3,4-b][1,3]benzothiazole], the IC50 on PARP2 (setting [2]) is more than 10 µM; on TNKS2 (setting [3]), 24 µM.

For `COc1ccc(OC)c2c1sc1nnc(NC(C)=O)n12` [Compound 31, N-(5,8-Dimethoxy[1,2,4]triazolo[3,4-b][1,3]benzothiazol-3-yl)acetamide], the IC50 on PARP2 (setting [2]) is 97 µM; at TNKS2 (setting [3]) it was more than 100 µM.

On to `Cc1cc(C)c2c(c1)sc1nncn12` [Compound 8], for which the results for the IC50 at PARP2 (setting [2]) and at TNKS2 (setting [3]) were 1.3 µM and 1.2 µM, respectively.

As to `Cc1ccc2c(c1)sc1nnc(NCc3ccc(Cl)cc3)n12` [Compound 25, N-(4-Chlorobenzyl)-7-methyl[1,2,4]triazolo[3,4-b][1,3]benzothiazol-3-amine], the results for the IC50 on PARP2 (setting [2]) and on TNKS2 (setting [3]) were 70 µM and more than 100 µM, respectively.

For `COc1ccc2sc3nncn3c2c1` [Compound 10, 6-Methoxy[1,2,4]triazolo[3,4-b][1,3]benzothiazole], the values for the IC50 on PARP2 (setting [2]) and on TNKS2 (setting [3]) were 4.7 µM and 1 µM, respectively.

`COc1ccc(OC)c2c1sc1nnc(NC(=O)C(C)(C)C)n12` [Compound 30, N-(5,8-Dimethoxy[1,2,4]triazolo[3,4-b][1,3]benzothiazol-3-yl)-2,2-dimethylpropanamide]: the results for the IC50 against PARP2 and at TNKS2 (setting [3]) were 53 µM and more than 100 µM, respectively.
